Test results as given in patent US10287269B2, “Pyrazolyl pyrimidinone compounds as PDE2 inhibitors” (Merck Sharp & Dohme Corp., priority 2015, dated 2019).

Target: T1, human PDE2A1 (Homo sapiens, UniProt O00408)
T1 construct: GST; purchased BPS Bioscience (San Diego, Calif.) 60020; host or cells: insect cells
Test: PDE2 IMAP FP inhibition assay, human enzyme (PDE selectivity panel format)
Type: biochemical
Conditions: Lab A; read-out: Human PDE2 Ki (nM) Lab A
Procedure, shortened: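 GST-tagged human PDE2A1 from insect cells, run at room temperature in 10 mM Tris pH 7.2, 10 mM MgCl2, 1 mM DTT with 50 nM FAM-cAMP plus 1000 nM cGMP for 60 min. IMAP fluorescence polarization read-out; apparent Ki derived using apparent KM 10,000 nM.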

T1 sequence (O00408 1-920 isoform O00408-2): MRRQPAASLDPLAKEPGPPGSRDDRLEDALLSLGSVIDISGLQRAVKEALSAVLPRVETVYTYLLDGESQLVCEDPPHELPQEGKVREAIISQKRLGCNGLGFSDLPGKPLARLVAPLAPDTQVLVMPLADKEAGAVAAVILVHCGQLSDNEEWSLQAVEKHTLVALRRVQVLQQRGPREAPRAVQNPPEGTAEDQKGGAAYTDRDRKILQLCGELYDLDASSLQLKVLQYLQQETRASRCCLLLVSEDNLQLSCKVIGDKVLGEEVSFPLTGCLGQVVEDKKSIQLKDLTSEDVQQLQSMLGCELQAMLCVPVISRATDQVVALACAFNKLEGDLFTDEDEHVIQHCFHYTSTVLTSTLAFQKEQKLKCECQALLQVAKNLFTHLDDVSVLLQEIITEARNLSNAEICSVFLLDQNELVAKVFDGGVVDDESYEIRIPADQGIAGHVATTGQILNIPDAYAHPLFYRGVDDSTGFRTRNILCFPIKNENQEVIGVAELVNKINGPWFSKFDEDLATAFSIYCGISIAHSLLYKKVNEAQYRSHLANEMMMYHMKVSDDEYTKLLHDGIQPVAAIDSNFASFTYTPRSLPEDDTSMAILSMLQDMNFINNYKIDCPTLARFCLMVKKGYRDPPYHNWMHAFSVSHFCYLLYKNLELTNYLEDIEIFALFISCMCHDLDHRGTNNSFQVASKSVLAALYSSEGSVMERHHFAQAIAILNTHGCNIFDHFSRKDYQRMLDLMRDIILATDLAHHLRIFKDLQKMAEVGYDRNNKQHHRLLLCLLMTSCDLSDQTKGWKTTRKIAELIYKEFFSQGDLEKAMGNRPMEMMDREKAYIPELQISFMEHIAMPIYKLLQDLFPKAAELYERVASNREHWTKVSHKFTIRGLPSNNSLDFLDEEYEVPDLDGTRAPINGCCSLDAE

Question: `Cc1nc(-c2cnn(C(C)c3ccc(C(F)(F)F)cc3Cl)c2)cc(=O)[nH]1` (single isomer, unassigned) [Example 83, (R)- or (S)-6-(1-(1-(2-chloro-4-(trifluoromethyl)phenyl)ethyl)-1H-pyrazol-4-yl)-2-methylpyrimidin-4(3H)-one] was tested. Which Ki did it give?
Answer: Its Ki is 5.1 nM.

Question: For `CCc1nc(-c2cnn(C(C)c3ccc(C(F)(F)F)cc3F)c2)cc(=O)[nH]1` (single isomer, unassigned) [Example 85, (R)- or (S)-2-ethyl-6-(1-(1-(2-fluoro-4-(trifluoromethyl)phenyl)ethyl)-1H-pyrazol-4-yl)pyrimidin-4(3H)-one], which Ki is on record?
Answer: Its Ki is 10.4 nM.

Question: How did the Ki turn out when `Cc1nc(-c2cnn(C(C)c3ccc(C4CC4)cc3F)c2)cc(=O)[nH]1` (single isomer, unassigned) [Example 91, (R)- or (S)-6-(1-(1-(4-cyclopropyl-2-fluorophenyl)ethyl)-1H-pyrazol-4-yl)-2-methylpyrimidin-4(3H)-one] was run?
Answer: The Ki was 48.4 nM.

Question: Which Ki does the source give for `Cc1nc(-c2cnn(C(C)c3ccc(C4CC4)cc3C)c2)cc(=O)[nH]1` (single isomer, unassigned) [Example 94, (S)- or (R)-6-(1-(1-(4-cyclopropyl-2-methylphenyl)ethyl)-1H-pyrazol-4-yl)-2-methylpyrimidin-4(3H)-one] here?
Answer: Its Ki is 52.5 nM.

Question: Which Ki does the source give for `CCc1ccc(C(C)n2cc(-c3cc(=O)[nH]c(C)n3)cn2)c(Cl)c1` (single isomer, unassigned) [Example 99, (R)- or (S)-6-(1-(1-(2-chloro-4-ethylphenyl)ethyl)-1H-pyrazol-4-yl)-2-methylpyrimidin-4(3H)-one] here?
Answer: The Ki was 10.4 nM.

Question: Which Ki does the source give for `CCc1ccc(C(C)n2cc(-c3cc(=O)[nH]c(C)n3)cn2)c(F)c1` (single isomer, unassigned) [Example 101, (R)- or (S)-6-(1-(1-(4-ethyl-2-fluorophenyl)ethyl)-1H-pyrazol-4-yl)-2-methylpyrimidin-4(3H)-one] here?
Answer: Its Ki is 38.5 nM.

Question: Which Ki does the source give for `Cc1nc(-c2cnn(C(C)c3ccc(C(F)(F)F)cc3F)c2)cc(=O)[nH]1` (single isomer, unassigned) [Example 136, (S)- or (R)-6-(1-(1-(2-fluoro-4-(trifluoromethyl)phenyl)ethyl)-1H-pyrazol-4-yl)-2-methylpyrimidin-4(3H)-one] here?
Answer: Its Ki is 19.1 nM.

Question: For `COc1ccc(Cc2nc(-c3cnn(C(C)c4ccc(C(F)(F)F)cc4F)c3)cc(=O)[nH]2)cc1` (single isomer, unassigned) [Example 138, (R)- or (S)-6-(1-(1-(2-fluoro-4-(trifluoromethyl)phenyl)ethyl)-1H-pyrazol-4-yl)-2-(4-methoxybenzyl)pyrimidin-4(3H)-one], which Ki is on record?
Answer: The Ki was 7.1 nM.

Same assay, conditions: Lab B; read-out: Human PDE2 Ki (nM) Lab B

Question: `Cc1nc(-c2cnn(C(C)c3ccc(OC(F)(F)F)cc3)c2)cc(=O)[nH]1` (single isomer, unassigned) [Example 127, (R)- or (S)-2-methyl-6-(1-(1-(4-(trifluoromethoxy)phenyl)ethyl)-1H-pyrazol-4-yl)pyrimidin-4(3H)-one] was tested. Which Ki did it give?
Answer: Its Ki is 103 nM.

Question: Which Ki does the source give for `COc1ccc(Cc2nc(-n3ccc(C(C)c4ccc(C(F)(F)F)cc4)n3)cc(=O)[nH]2)cc1OC` (single isomer, unassigned) [Example 133, (R)- or (S)-2-(3,4-dimethoxybenzyl)-6-(3-(1-(4-(trifluoromethyl)phenyl)ethyl)-1H-pyrazol-1-yl)pyrimidin-4(3H)-one] here?
Answer: Its Ki is 38.5 nM.

Question: For `COc1ccc(Cc2nc(-n3ccc(C(C)c4ccc(C(F)(F)F)cc4)n3)cc(=O)[nH]2)cc1OC` (single isomer, unassigned) [Example 134, (R)- or (S)-2-(3,4-dimethoxybenzyl)-6-(3-(1-(4-(trifluoromethyl)phenyl)ethyl)-1H-pyrazol-1-yl)pyrimidin-4(3H)-one], which Ki is on record?
Answer: The Ki was 66.6 nM.

Question: Which Ki does the source give for `Cc1nc(-c2cnn(C(C)c3ccc(C(F)(F)F)cc3F)c2)cc(=O)[nH]1` (single isomer, unassigned) [Example 135, (R)- or (S)-6-(1-(1-(2-fluoro-4-(trifluoromethyl)phenyl)ethyl)-1H-pyrazol-4-yl)-2-methylpyrimidin-4(3H)-one] here?
Answer: The Ki was 91.9 nM.

Question: How did the Ki turn out when `Cc1nc(-c2cnn(C(C)c3ccc(C(F)(F)F)cc3F)c2)cc(=O)[nH]1` (single isomer, unassigned) [Example 136, (S)- or (R)-6-(1-(1-(2-fluoro-4-(trifluoromethyl)phenyl)ethyl)-1H-pyrazol-4-yl)-2-methylpyrimidin-4(3H)-one] was run?
Answer: The Ki was 7.6 nM.

Question: For `COc1ccc(Cc2nc(-c3cnn(C(C)c4ccc(C(F)(F)F)cc4F)c3)cc(=O)[nH]2)cc1` (single isomer, unassigned) [Example 138, (R)- or (S)-6-(1-(1-(2-fluoro-4-(trifluoromethyl)phenyl)ethyl)-1H-pyrazol-4-yl)-2-(4-methoxybenzyl)pyrimidin-4(3H)-one], which Ki is on record?
Answer: Its Ki is 5.1 nM.
